ChEMBL document CHEMBL1140569, “Synthesis and structure-activity relationships of thieno[2,3-b]pyrroles as antagonists of the GnRH receptor” (Bioorg Med Chem Lett, 2007)
Values after ≈ are worked out from the molar mass of the structure shown. One block for each molecule: values may come before it. Active and inactive are the calls of the source. No cut-off for these calls is given here.

Legend:
[1] = Solubility in 0.1 M phosphate buffer at pH 7.4
[2] = AUC in rat at 1 mg/kg, po; type: ADME, organism-based; design: dose 1 mg/kg, route oral; details: plasma
[3] = AUC in rat at 10 mg/kg, po; type: ADME, organism-based; design: dose 10 mg/kg, route oral; details: plasma
[4] = Plasma clearance in rat; type: ADME, organism-based
[5] = Oral bioavailability in rat; type: ADME, organism-based; details: in vivo
Rattus norvegicus = experiment: Inhibition of LH production in castrated AP Wistar Han rat model at 75 mg/kg, po after 12 hrs by radioimmunoassay; type: functional, organism-based; design: dose 75 mg/kg
Cytochrome P450 3A4 = Cytochrome P450 3A4 (Homo sapiens, UniProt P08684); experiment: Inhibition of human CYP3A4
Chain of Cytochrome P450 3A4 (P08684 whole entry): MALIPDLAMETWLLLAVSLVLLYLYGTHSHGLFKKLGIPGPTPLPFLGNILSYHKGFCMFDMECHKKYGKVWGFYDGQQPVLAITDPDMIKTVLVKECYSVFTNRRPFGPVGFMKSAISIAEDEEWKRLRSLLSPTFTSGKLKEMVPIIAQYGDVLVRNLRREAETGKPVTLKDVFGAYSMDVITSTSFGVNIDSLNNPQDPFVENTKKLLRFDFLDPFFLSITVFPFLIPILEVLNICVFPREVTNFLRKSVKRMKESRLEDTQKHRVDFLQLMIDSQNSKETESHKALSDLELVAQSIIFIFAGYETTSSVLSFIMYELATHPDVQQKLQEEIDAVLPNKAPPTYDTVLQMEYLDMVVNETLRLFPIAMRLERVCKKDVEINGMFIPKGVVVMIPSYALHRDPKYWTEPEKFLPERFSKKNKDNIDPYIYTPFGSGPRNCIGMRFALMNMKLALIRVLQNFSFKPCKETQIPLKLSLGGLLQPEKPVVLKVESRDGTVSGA

AUC [2]: 0.018 µM·h
SMILES: Cc1cc(C)cc(-c2[nH]c3sc(C(C)(C)C(=O)N4C5CCC4CC5)cc3c2CCN2CCC(CNC(=O)N3CCOCC3)CC2)c1

AUC [3]: 358 µM·h | clearance [4]: 0.1 mL/min/kg | bioavailability [5]: 35%
SMILES: COC1CCN(C(=O)C2CCN(CCc3c(-c4cc(C)cc(C)c4)[nH]c4sc(C(C)(C)C(=O)N5C6CCC5CC6)cc34)CC2)CC1

AUC [3]: 0.254 µM·h
SMILES: Cc1cc(C)cc(-c2[nH]c3sc(C(C)(C)C(=O)N4C5CCC4CC5)cc3c2CCN2CCC(C(=O)N3CCOCC3)C(C)C2)c1 (stereo not drawn)

AUC [3]: 27.1 µM·h | clearance [4]: 4 mL/min/kg
SMILES: Cc1cc(C)cc(-c2[nH]c3sc(C(C)(C)C(=O)N4C5CCC4CC5)cc3c2CCN2CCC(C(=O)N3CCOCC3)CC2)c1
Activity (Rattus norvegicus): Active

AUC [2]: 0.006 µM·h
SMILES: Cc1cc(C)cc(-c2[nH]c3sc(C(C)(C)C(=O)N4C5CCC4CC5)cc3c2CCN2CCC(N3CCOCC3)CC2)c1

AUC [2]: 0.36 µM·h
SMILES: Cc1cc(C)cc(-c2[nH]c3sc(C(C)(C)C(=O)N4C5CCC4CC5)cc3c2C(=O)CN2CCC(C(=O)N3CCOCC3)CC2)c1

AUC [2]: 0.041 µM·h
SMILES: Cc1cc(C)cc(-c2[nH]c3sc(C(C)(C)C(=O)N4C5CCC4CC5)cc3c2CCN2CCC(CC(=O)N3CCOCC3)CC2)c1

AUC [3]: 0.526 µM·h
SMILES: Cc1cc(C)cc(-c2[nH]c3sc(C(C)(C)C(=O)N4C5CCC4CC5)cc3c2CCN2CCC(OCC(=O)N3CCOCC3)CC2)c1

Continued, molecule first:

SMILES: Cc1cc(C)cc(-c2[nH]c3sc(C(C)(C)C(=O)N4C5CCC4CC5)cc3c2[C@H](C)CN/C(=N/C(=O)OC(C)C)N2CCC(c3ccncc3)CC2)c1
solubility [1]: 1.4 µM (≈ 1.01 µg/mL)

SMILES: Cc1cc(C)cc(-c2[nH]c3sc(C(C)(C)C(=O)N4CCCC4)cc3c2[C@H](C)CNC(=O)N2CCC(c3ccccc3)C2)c1 (stereo partly drawn)
solubility [1]: 56 µM (≈ 33.4 µg/mL)

SMILES: Cc1cc(C)cc(-c2[nH]c3sc(C(C)(C)C(=O)N4C5CCC4CC5)cc3c2CCN2CCN(CC(=O)N3CCOCC3)CC2)c1
clearance [4]: 153 mL/min/kg | bioavailability [5]: 4%

SMILES: COC(=O)/N=C(/NC[C@@H](C)c1c(-c2cc(C)cc(C)c2)[nH]c2sc(C(C)(C)C(=O)N3C4CCC3CC4)cc12)N1CCC(c2ccncc2)C1 (stereo partly drawn)
solubility [1]: 4.6 µM (≈ 3.13 µg/mL)

SMILES: Cc1cc(C)cc(-c2[nH]c3sc(C(C)(C)C(=O)N4C5CCC4CC5)cc3c2CCN2CCN(CC(=O)N(C)C)CC2)c1
solubility [1]: 104 µM (≈ 61.3 µg/mL)

SMILES: Cc1cc(C)cc(-c2[nH]c3sc(C(C)(C)C(=O)N4C5CCC4CC5)cc3c2CN2CCN(CC(=O)N3CCCC3)CC2)c1
solubility [1]: 2 µM (≈ 1.2 µg/mL)

SMILES: Cc1cc(C)cc(-c2[nH]c3sc(C(C)(C)C(=O)N4C5CCC4CC5)cc3c2[C@H](C)CNC(=NC(=O)OC(C)C)N2CCC(c3ccncc3)C2)c1 (stereo partly drawn)
solubility [1]: 0.8 µM (≈ 0.567 µg/mL)

SMILES: COC1CCN(C(=O)C2CCN(CCc3c(-c4cc(C)cc(C)c4)[nH]c4sc(C(C)(C)C(=O)N5C6CCC5CC6)cc34)CC2)C1 (stereo not drawn)
AUC [3]: 190 µM·h | clearance [4]: 0.8 mL/min/kg | bioavailability [5]: 38%

SMILES: Cc1cc(C)cc(-c2[nH]c3sc(C(C)(C)C(=O)N4C5CCC4CC5)cc3c2[C@H](C)CNC(=O)N2CCC(c3ccncc3)CC2)c1
solubility [1]: 0.6 µM (≈ 0.383 µg/mL)

SMILES: Cc1cc(C)cc(-c2[nH]c3sc(C(C)(C)C(=O)N4C5CCC4CC5)cc3c2C(=O)CN2CCN(CC(=O)N3CCCC3)CC2)c1
solubility [1]: 947 µM (≈ 596 µg/mL)

SMILES: CCN(CC)CCOC1CCN(CCc2c(-c3cc(C)cc(C)c3)[nH]c3sc(C(C)(C)C(=O)N4C5CCC4CC5)cc23)CC1
AUC [2]: 0.002 µM·h

SMILES: CC(=O)NC1CCN(C(=O)CN2CCN(CCc3c(-c4cc(C)cc(C)c4)[nH]c4sc(C(C)(C)C(=O)N5C6CCC5CC6)cc34)CC2)C1 (stereo not drawn)
solubility [1]: 107 µM (≈ 72 µg/mL)

SMILES: CC(=O)N1CCN(CC(O)CN2CCN(CCc3c(-c4cc(C)cc(C)c4)[nH]c4sc(C(C)(C)C(=O)N5C6CCC5CC6)cc34)CC2)CC1 (stereo not drawn)
solubility [1]: 236 µM (≈ 163 µg/mL) | IC50 (Cytochrome P450 3A4): 6 µM

SMILES: Cc1cc(C)cc(-c2[nH]c3sc(C(C)(C)C(=O)N4C5CCC4CC5)cc3c2CCN2CCN(CC(O)CN3CCNCC3)CC2)c1 (stereo not drawn)
solubility [1]: 425 µM (≈ 275 µg/mL) | IC50 (Cytochrome P450 3A4): > 10 µM

SMILES: Cc1cc(C)cc(-c2[nH]c3sc(C(C)(C)C(=O)N4C5CCC4CC5)cc3c2CCN2CCC(C(=O)N3CCCC(O)C3)CC2)c1 (stereo not drawn)
AUC [3]: 39.3 µM·h | clearance [4]: 1.3 mL/min/kg
